Assay results published in patent US4191808A, “Method of measuring dipeptidyl-amino-peptidase activity” (Ajinomoto Co., Inc., priority 1975, dated 1980).
Peptide text beside a SMILES is read from it. * marks the point of attachment. pNA = O=[N+]([O-])c1ccc(N*)cc1

Key:
[1] = molecular target: T1, X-prolyl dipeptidyl-aminopeptidase in human serum (Homo sapiens, UniProt P27487); experiment: Direct photometric assay of substrate hydrolysis (p-nitroaniline liberated, 385 nm) with human serum as enzyme source; type: biochemical; details: for Enzyme activity (μmole/min/1 serum ± S.E.): 3 cases; for Relative enzyme activity (%) Human serum pH 7.0: pH 7.0, 0.15 M Tris-maleate buffer; for Relative enzyme activity (%) Human serum pH 7.0 / Relative enzyme activity (%) Human serum pH 8.7: glycyl-L-proline p-nitroanilide = 100; for Relative enzyme activity (%) Human serum pH 8.7: pH 8.7, 0.15 M glycine-NaOH buffer
T1 construct: Even if crude enzyme such as human serum is used as enzyme source, the activity is accurately measured; from tissue; host or cells: human serum (normal subjects and patients)
T1 sequence (P27487 39-766 limits assumed): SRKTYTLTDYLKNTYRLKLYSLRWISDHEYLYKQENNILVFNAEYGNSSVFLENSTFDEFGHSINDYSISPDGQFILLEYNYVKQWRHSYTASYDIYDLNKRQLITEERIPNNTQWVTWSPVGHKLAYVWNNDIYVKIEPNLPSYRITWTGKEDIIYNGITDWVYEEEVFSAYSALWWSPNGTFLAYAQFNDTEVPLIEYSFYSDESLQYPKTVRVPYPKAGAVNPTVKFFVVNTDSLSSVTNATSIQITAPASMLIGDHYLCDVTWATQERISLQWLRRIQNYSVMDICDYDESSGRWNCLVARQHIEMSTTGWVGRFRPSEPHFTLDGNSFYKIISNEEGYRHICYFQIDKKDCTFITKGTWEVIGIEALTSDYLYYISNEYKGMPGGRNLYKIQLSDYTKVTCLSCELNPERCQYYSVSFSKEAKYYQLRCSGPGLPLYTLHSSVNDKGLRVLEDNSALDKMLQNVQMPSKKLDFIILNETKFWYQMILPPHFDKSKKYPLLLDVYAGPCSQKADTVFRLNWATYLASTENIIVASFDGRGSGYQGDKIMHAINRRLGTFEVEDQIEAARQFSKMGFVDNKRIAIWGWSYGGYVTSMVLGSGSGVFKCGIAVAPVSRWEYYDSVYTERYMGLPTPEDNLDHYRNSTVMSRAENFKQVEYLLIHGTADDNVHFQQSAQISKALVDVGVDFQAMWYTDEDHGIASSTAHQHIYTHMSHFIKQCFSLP
Method: The relation between the incubation time and the amount of substrate hydrolyzed was examined, glycyl-L-proline p-nitroanilide and human serum being used as substrate and enzyme source, respectively, and the assay of the substrate hydrolyzed was carried out by the following direct photometric method.
Glycyl-L-proline p-nitroanilide tosylate was dissolved in 2% non-ionic detergent (Nikkol NP-10; Nikko Chemicals, Osaka, Japan) aqueous solution in a concentration of 3 mM to prepare the substrate solution. The following four tubes were prepared:
(1) the experimental tube contained 0.5 ml of 0.15 M glycine-NaOH buffer (pH 8.7), 0.5 ml of the substrate solution, and 0.05 ml of human serum
(2) the blank tube contained 0.5 ml of the 0.15 M glycine-NaOH buffer, 0.5 ml of the substrate solution and 0.05 ml of water.
(3) the standard tube contained 0.5 ml of the buffer, 0.5 ml of the substrate and 0.05 ml of 3 mM p-nitroaniline aqueous solution.
(4) the control tube contained 0.5 ml of the buffer and 0.5 ml of the substrate.
All tubes were incubated at 37° C. for the periods listed in Table 1, and the reaction was stopped by the addition of 3.0 ml of 1M acetate buffer (pH 4.2) to every tube. To the control tube, 0.05 ml of the human serum was added after stopping the reaction. A photometer was adjusted to zero with the blank, and the absorbances of the experimental (E), control (C), and standard (S) were read at 385 nm in a cuvette with 1 cm light path. p-Nitroaniline liberated by the enzyme reaction was calculated by the equation [formula]
(§1) 3mM substrate solutions were prepared as in Example 22, various dipeptide derivatives or salts thereof being used as substrates. The relative enzyme activities toward various substrates, and the rates and optimum pHs of hydrolysis of various substrates with the enzyme were measured as in Example 22.
(§2) ^c Activities were measured at pH 7.0 in 0.15 M Trismaleate buffer or
(§3) at pH 8.7 in 0.15 M glycineNaOH buffer. The values are the mean of
The activity of X-prolyl dipeptidyl-aminopeptidase was measured as in Example 22, glycyl-L-proline p-nitroanilide and 88 normal human sera being used as substrate and enzyme, respectively.
The activity of X-prolyl dipeptidyl-aminopeptidase was measured as in Example 22, glycyl-L-proline p-nitroanilide and human sera from patients being used as substrate and enzyme sources, respectively.
The activity of X-prolyl dipeptidyl-aminopeptidase was measured as in Example 22, various X-L-prolyl p-nitroanilides, and human sera from patients being used as substrates and enzyme sources, respectively.

[2] = test system: purified human submaxillary enzyme (X-prolyl dipeptidyl-aminopeptidase); experiment: Direct photometric assay of substrate hydrolysis with purified human submaxillary enzyme; type: biochemical; details: for Optimum pH: Tris-maleate, glycine-NaOH or amidiol buffer; for Relative enzyme activity (%) Purified human submaxillary enzyme pH 7.0: pH 7.0, 0.15 M Tris-maleate buffer, glycyl-L-proline p-nitroanilide = 100; for Km: pH 7.0, Tris-maleate buffer, mean of duplicate experiments
Method: as §1
^a Activities were measured in 0.15 M Trismaleate buffer at pH 5.6-8.
and in 0.15 M glycineNaOH buffer at pH 8.2-9.4, purified human
submaxillary enzyme being used. For Lalanyl-L-proline pnitroanilide,
amidiol buffer were used instead of glycine buffer, since glycine buffer
interfered the photometry at pH 9-10.
^b Km values were measured at 7.0 in Trismaleate buffer, purified
human submaxillary enzyme being used. The values are the mean of duplicat
as §2, §3
^d The purified enzyme was obtained by the following method; The
enzyme was solubilized from the microsomal fraction by autodigestion, and
subsequently purified by (NH4)2 SO4 fractionation followed
by Sephadex G200 chromatography.

[3] = Time for perfect dissolution in water with stirring; type: physicochemical; details: 0.23 mg in 100 ml water with stirring
Method: 0.23 mg of crystalline glycyl-L-proline p-nitroanilide tosylate was dissolved in 100 ml water with stirring. It took ca. 30 minutes at 20° C. and ca. 18 minutes at 30° C. for perfect dissolution.
On the other hand, 0.23 mg of porous glycyl-L-proline p-nitroanilide tosylate, which was prepared by freezing […]. mole aqueous solution of the same at -40° C. and then drying the freezed solid at 0.05 mmHg, was dissolved in 100 ml water with stirring as in the above procedure. It only took ca. 10 seconds at 20° C. and ca. 5 seconds at 30° C. for perfect dissolution.

[4] = molecular target: T1, X-prolyl dipeptidyl-aminopeptidase in human serum; experiment: Azo-coupling assay of substrate hydrolysis (548 nm) with human serum as enzyme source; type: biochemical; details: 37° C., 30 minutes, pH 8.7
Method: The relation between the amount of enzyme and the amount of substrate hydrolyzed was examined, glycyl-L-proline p-nitroanilide tosylate and human serum being used as substrate and enzyme source, respectively, and the assay of the substrate hydrolyzed being carried out by the following azo-coupling method.
The following tubes were prepared: (1) the experimental tube contained 1.0 ml of 0.15 M glycine-NaOH buffer (pH 8.7), 1.0 ml of the substrate solution prepared in Example 22, and the volume listed in table 2 of human serum.
(2) the control tube contained 1.0 ml of the glycine-NaOH buffer, and 1.0 ml of the substrate solution.
Both experimental and control tubes were incubated at 37° C. for 30 minutes, and 0.1 ml of the serum was added to the control tube. The reaction was stopped by adding 0.4 ml of 30% perchloric acid aqueous solution. After centrifuging at 3000 rpm for 10 minutes, each 0.5 ml of the supernatant was transferred to another tube; besides 0.1 ml of […] p-nitroaniline aqueous solution and 2.4 ml of 30% perchloric acid solution were added to the standard tube, and 2.5 ml of the perchloric acid solution was added to the blank tube.
To all the four tubes, 0.5 ml of 0.2% sodium nitrite aqueous solution at 4° C., and they were kept at 4° C. for 10 minutes. Then, 0.5 ml of freshly prepared 0.5% ammonium sulfamate aqueous solution was added. After 2 minutes, 1.0 ml of 0.05% N-(1-naphthyl) ethylenediamine solution was added and the mixtures were incubated at 37° C. for 30 minutes in the dark.
A photometer was adjusted to zero with the blank, and the absorbances of the experimental (E), control (C), and standard (S) were read at 548 nm.
p-Nitroaniline formed enzymically was calculated by the equation: [formula] the volume of […] p-nitroaniline aqueous solution used in the standard tube (ml)).

[5] = human sera from patients, Gastric Cancer
[6] = human sera from patients, Hepatitis

Enzyme activity (μmole/min/1 serum ± S.E.) [1, 5] [μmole/min/1 serum]	Enzyme activity (μmole/min/1 serum ± S.E.) [1, 6] [μmole/min/1 serum]	Enzyme activity (μmole/min/1 serum ± S.E.) ([1]; human sera, Normal (control)) [μmole/min/1 serum]	Relative enzyme activity (%) Human serum pH 7.0 ([1]; human serum) [%]	Relative enzyme activity (%) Human serum pH 8.7 ([1]; human serum) [%]	Optimum pH [2]	Relative enzyme activity (%) Purified human submaxillary enzyme pH 7.0 [2] [%]	Km [2] [µM]	Compound	further results
–	–	–	–	–	–	–	–	Cc1ccc(S(=O)(=O)O)cc1.NCC(=O)N1CCC[C@H]1C(=O)Nc1ccc([N+](=O)[O-])cc1 [glycyl-L-proline p-nitroanilide tosylate, Glycyl-L-proline p-nitroanilide tosylate] (H-Gly-Pro-pNA)	time for perfect dissolution ([3]; 20° C., listed as crystalline glycyl-L-proline p-nitroanilide tosylate): ca. 30 minutes; time for perfect dissolution ([3]; 30° C., listed as crystalline glycyl-L-proline p-nitroanilide tosylate): ca. 18 minutes; Amount of p-nitroaniline formed ([4]; volume of serum 0.01 ml): 14.24 n mole; Amount of p-nitroaniline formed ([4]; volume of serum 0.02 ml): 32.91 n mole; Amount of p-nitroaniline formed ([4]; volume of serum 0.03 ml): 45.89 n mole; Amount of p-nitroaniline formed ([4]; volume of serum 0.04 ml): 62.50 n mole; Amount of p-nitroaniline formed ([4]; volume of serum 0.05 ml): 82.44 n mole; Amount of p-nitroaniline formed ([4]; volume of serum 0.10 ml): 155.06 n mole
18.5 ± 1.9	99.5 ± 17.0	36.6 ± 9.6	83	75	8.5-8.7	86	14	C[C@H](N)C(=O)N1CCC[C@H]1C(=O)Nc1ccc([N+](=O)[O-])cc1.Cl [L-alanyl-L-proline p-nitroanilide, L-Alanyl-L-proline p-nitroanilide hydrochloride] (H-Ala-Pro-pNA)	–
–	–	–	–	–	–	–	–	Cc1ccc(S(=O)(=O)O)cc1.NCC(=O)N1CCC[C@H]1C(=O)Nc1ccc([N+](=O)[O-])cc1 [glycyl-L-proline p-nitroanilide tosylate] (H-Gly-Pro-pNA)	time for perfect dissolution ([3]; 20° C., tosylate): ca. 10 seconds; time for perfect dissolution ([3]; 30° C., tosylate): ca. 5 seconds
17.6 ± 1.6	102.5 ± 17.5	37.7 ± 9.0	34	28	8.5-8.7	37	81	N[C@@H](CC(=O)O)C(=O)N1CCC[C@H]1C(=O)Nc1ccc([N+](=O)[O-])cc1 [L-aspartyl-L-proline p-nitroanilide, L-Aspartyl-L-proline p-nitroanilide] (H-Asp-Pro-pNA)	–
13.9 ± 1.3	74.8 ± 17.6	27.5 ± 7.5	54	37	8.5-8.7	58	23	N[C@@H](CCC(=O)O)C(=O)N1CCC[C@H]1C(=O)Nc1ccc([N+](=O)[O-])cc1 [L-glutamyl-L-proline p-nitroanilide, L-Glutamyl-L-proline p-nitroanilide] (H-Glu-Pro-pNA)	–
–	–	–	–	–	–	–	–	Br.O=C(Nc1ccc([N+](=O)[O-])cc1)[C@@H]1CCCN1 [L-proline p-nitroanilide, L-Proline p-nitroanilide hydrobromide, reference compound]	rate of hydrolysis by human serum, as % of hydrolysis of glycyl-L-proline p-nitroanilide ([1]; human serum): 0.7%

Compound	Enzyme activity (μmole/min/1 serum ± S.E.) [1, 5] [μmole/min/1 serum]	Enzyme activity (μmole/min/1 serum ± S.E.) [1, 6] [μmole/min/1 serum]	Enzyme activity (μmole/min/1 serum ± S.E.) ([1]; human sera, Normal (control)) [μmole/min/1 serum]	Relative enzyme activity (%) Human serum pH 7.0 ([1]; human serum) [%]	Relative enzyme activity (%) Human serum pH 8.7 ([1]; human serum) [%]	Optimum pH [2]	Relative enzyme activity (%) Purified human submaxillary enzyme pH 7.0 [2] [%]	Km [2] [µM]	further results
Cc1ccc(S(=O)(=O)O)cc1.Cc1ccc(S(=O)(=O)O)cc1.N=C(N)NCCC[C@H](N)C(=O)N1CCC[C@H]1C(=O)Nc1ccc([N+](=O)[O-])cc1 [L-arginyl-L-proline p-nitroanilide, L-Arginyl-L-proline p-nitroanilide ditosylate] (H-Arg-Pro-pNA)	6.0 ± 0.7	35.5 ± 6.8	13.8 ± 3.6	86	55	7.8-8.0	94	230	–
Cc1ccc(S(=O)(=O)O)cc1.Cc1ccc(S(=O)(=O)O)cc1.NCCCC[C@H](N)C(=O)N1CCC[C@H]1C(=O)Nc1ccc([N+](=O)[O-])cc1 [L-lysyl-L-proline p-nitroanilide, L-Lysyl-L-proline p-nitroanilide ditosylate] (H-Lys-Pro-pNA)	8.2 ± 0.8	49.7 ± 10.2	18.2 ± 4.7	122	71	8.5-8.7	121	120	–
